Converted amounts (≈) assume the structure as drawn. Where two headings read alike, the source gives them in different places.
How the values were obtained:
[1] = tested on: gram-positive bacteria; test: Antibacterial activities against gram-positive bacteria (summary of Table 1); format: cell-based; conditions: in words
Procedure: (§1) Antibacterial activities of the compounds of formula (I) are shown in Table 1 in terms of minimum inhibitory concentration (MIC).
(§2) Minimum inhibitory concentration was determined by the agar plate dilution method. Test strains were subjected to seed culture using Sensitivity test broth (STB, Nissui Pharmaceutical) except that the strains belonging to the genus Streptococcus, Branhamella and Haemophilus were cultured on blood agar plate. A 5 μl portion of cell suspension of the test strains having about 10^6 CFU/ml was inoculated into Sensitivity disk agar (SDA, Nissui Pharmaceutical) supplemented with 5% horse blood and incubated at 37° C. for 20 hours. Then, MIC was measured.

[2] = tested on: H. influenza 9334; test: Antibacterial activity (MIC), agar plate dilution method; format: cell-based; conditions: 37° C., 20 hours, blood agar seed culture
Procedure: as §1, §2

[3] = tested on: Sta. aureus MS15026; test: as above; format: cell-based; conditions: Staphylococcus aureus, 37° C., 20 hours
Procedure: as §1, §2

[4] = tested on: S. pneumoniae Type 1; test: as above; format: cell-based; conditions: Streptococcus pneumoniae, TYPE1, 37° C., 20 hours, blood agar seed culture
Procedure: as §1, §2

[5] = tested on: Sta. aureus MS15027; test: as above; format: cell-based; conditions: Staphylococcus aureus, read-out: Antibacterial activity (MIC)
Procedure: as §1, §2

[6] = tested on: Sta. aureus 209P JC-1; test: as above; format: cell-based; conditions: Staphylococcus aureus, 37° C., 20 hours
Procedure: as §1, §2

[7] = tested on: Sta. aureus MS15009/pMS99; test: as above; format: cell-based; conditions: Staphylococcus aureus, MS15009/PMS99, 20 h, read-out: Antibacterial activity (MIC)
Procedure: as §1, §2

[8] = tested on: E. coli NIHJ JC-2; test: as above; format: cell-based; conditions: Escherichia coli, NIHJJC2, 37° C., 20 hours
Procedure: as §1, §2

[9] = tested on: B. catarrhalis W-0500; test: as above; format: cell-based; conditions: Moraxella catarrhalis, read-out: Antibacterial activity (MIC)
Procedure: as §1, §2

[10] = tested on: S. pneumoniae IP692; test: as above; format: cell-based; conditions: Streptococcus pneumoniae, 37° C., 20 hours, blood agar seed culture
Procedure: as §1, §2

[11] = tested on: Sta. aureus M133; test: as above; format: cell-based; conditions: Staphylococcus aureus, read-out: Antibacterial activity (MIC)
Procedure: as §1, §2

[12] = tested on: Sta. aureus MS15009/pMS98; test: as above; format: cell-based; conditions: Staphylococcus aureus, MS15009/PMS98, 20 h, read-out: Antibacterial activity (MIC)
Procedure: as §1, §2

[13] = tested on: B. catarrhalis W-0506; test: as above; format: cell-based; conditions: Moraxella catarrhalis, read-out: Antibacterial activity (MIC)
Procedure: as §1, §2

[14] = tested on: Ent. faecalis W-73; test: as above; format: cell-based; conditions: Enterococcus faecalis, W73, 37° C., 20 hours
Procedure: as §1, §2

[15] = tested on: Sta. epidermidis ATCC 14990; test: as above; format: cell-based; conditions: Staphylococcus epidermidis, read-out: Antibacterial activity (MIC)
Procedure: as §1, §2

[16] = tested on: M. luteus ATCC 9341; test: as above; format: cell-based; conditions: Micrococcus luteus, ATCC9341, 37° C., 20 hours
Procedure: as §1, §2

[17] = tested on: K. pneumoniae PC1602; test: as above; format: cell-based; conditions: Klebsiella pneumoniae, 37° C., 20 hours
Procedure: as §1, §2

[18] = tested on: S. Pyogenes Cook; test: as above; format: cell-based; conditions: Streptococcus pyogenes, 37° C., 20 hours, blood agar seed culture
Procedure: as §1, §2

[19] = tested on: Sta. aureus M126; test: as above; format: cell-based; conditions: Staphylococcus aureus, 37° C., 20 hours
Procedure: as §1, §2

[20] = tested on: M. luteus; format: in vitro ADME
Procedure: Changes in the antibacterial activities of miokamycin (MOM) and the compound (13) were measured in the following manner.
Each test compound and 50 μl of a methanol solution (10,000 γ) were added to 950 μl of thawed rat plasma and the resulting mixture was incubated at 37° C. A 20 μl portion of the mixture was sampled after 0, 1, 3, 6 and 24 hours and added to 980 μl of 0.05M phosphate buffer (pH 7.2). A 20 μl portion of the sample solution was used to measure antibacterial activity against M. luteus. Separately, the calibration curve was prepared by using a methanol solution containing each test compound. The starting activity of each compound in the plasma was referred to as 100%.

[21] = W0500, 37° C., 20 hours, blood agar seed culture, B. catarrhalis W-0500
[22] = 37° C., 20 hours, Sta. aureus M133
[23] = ATCC14990, 37° C., 20 hours, Sta. epidermidis ATCC 14990
[24] = W0506, 37° C., 20 hours, blood agar seed culture, B. catarrhalis W-0506

SMILES	MIC [2]	MIC [3]	MIC [4]	MIC ([5]; MS15027, 20 h)	MIC [6]	MIC [7]	MIC [8]	MIC [9, 21]	MIC [10]	MIC [11, 22]	MIC [12]	MIC ([13]; W0506, 20 h)	MIC [14]	MIC [15, 23]	MIC [16]	MIC [17]	MIC [18]	MIC [19]	MIC ([9]; W0500, 20 h)	MIC ([11]; M133, 20 h)	other results
CCO[C@H]1[C@H](C)O[C@@H](O[C@H]2[C@H](N(C)C)[C@@H](O)[C@H](O[C@H]3[C@@H](CC=O)C[C@@H](C)C(=O)/C=C/C=C/C[C@@H](C)OC(=O)C[C@@H](OC(=O)CC)[C@@H]3OC)O[C@@H]2C)C[C@@]1(C)OC [Compound (13)]	100 µg/mL (≈ 125 µM)	> 100 µg/mL	1.56 µg/mL (≈ 1.95 µM)	6.25 µg/mL (≈ 7.83 µM)	3.13 µg/mL (≈ 3.92 µM)	> 100 µg/mL	> 100 µg/mL	3.13 µg/mL (≈ 3.92 µM)	1.56 µg/mL (≈ 1.95 µM)	3.13 µg/mL (≈ 3.92 µM)	6.25 µg/mL (≈ 7.83 µM)	6.25 µg/mL (≈ 7.83 µM)	3.13 µg/mL (≈ 3.92 µM)	12.5 µg/mL (≈ 15.7 µM)	0.78 µg/mL (≈ 0.977 µM)	> 100 µg/mL	0.78 µg/mL (≈ 0.977 µM)	> 100 µg/mL	–	–	antibacterial activities against gram-positive bacteria [1]: have antibacterial activities against gram-positive bacteria; antibacterial activity in rat plasma over time [20]: antibacterial activity sustaining for a prolonged period of time in rat plasma; degree of the decrease in the antibacterial activity in plasma [20]: clearly lower degree of the decrease in the antibacterial activity in plasma, compared with miokamycin; metabolism at the mycarose moiety in plasma [20]: hardly metabolized at the mycarose moiety
CCCCCCO[C@H]1[C@H](C)O[C@@H](O[C@H]2[C@H](N(C)C)[C@@H](O)[C@H](O[C@H]3[C@@H](CC=O)C[C@@H](C)C(=O)/C=C/C=C/C[C@@H](C)OC(=O)C[C@@H](OC(=O)CC)[C@@H]3OC)O[C@@H]2C)C[C@@]1(C)OC [Compound (42)]	12.5 µg/mL (≈ 14.6 µM)	> 100 µg/mL	0.2 µg/mL (≈ 0.234 µM)	1.56 µg/mL (≈ 1.83 µM)	0.78 µg/mL (≈ 0.913 µM)	> 100 µg/mL	> 100 µg/mL	–	0.2 µg/mL (≈ 0.234 µM)	–	1.56 µg/mL (≈ 1.83 µM)	1.56 µg/mL (≈ 1.83 µM)	6.25 µg/mL (≈ 7.32 µM)	–	0.1 µg/mL (≈ 0.117 µM)	> 100 µg/mL	0.2 µg/mL (≈ 0.234 µM)	> 100 µg/mL	1.56 µg/mL (≈ 1.83 µM)	1.56 µg/mL (≈ 1.83 µM)	MIC ([15]; ATCC14990, 20 h): 1.56 µg/mL (≈ 1.83 µM)
CCCCO[C@H]1[C@H](C)O[C@@H](O[C@H]2[C@H](N(C)C)[C@@H](O)[C@H](O[C@H]3[C@@H](CC=O)C[C@@H](C)C(=O)/C=C/C=C/C[C@@H](C)OC(=O)C[C@@H](OC(=O)CC)[C@@H]3OC)O[C@@H]2C)C[C@@]1(C)OC [Compound (41)]	6.25 µg/mL (≈ 7.57 µM)	> 100 µg/mL	0.2 µg/mL (≈ 0.242 µM)	–	0.2 µg/mL (≈ 0.242 µM)	> 100 µg/mL	> 100 µg/mL	0.78 µg/mL (≈ 0.944 µM)	0.1 µg/mL (≈ 0.121 µM)	0.78 µg/mL (≈ 0.944 µM)	0.39 µg/mL (≈ 0.472 µM)	–	3.13 µg/mL (≈ 3.79 µM)	1.56 µg/mL (≈ 1.89 µM)	0.05 µg/mL (≈ 0.0605 µM)	> 100 µg/mL	0.1 µg/mL (≈ 0.121 µM)	> 100 µg/mL	–	–	antibacterial activities compared with miokamycin ([1]; vs miokamycin): excellent antibacterial activities exceeding that of miokamycin; MIC ([5]; 37° C., 20 hours, Sta. aureus MS15027): 0.78 µg/mL (≈ 0.944 µM); MIC [13, 24]: 0.78 µg/mL (≈ 0.944 µM)
C=CCO[C@H]1[C@H](C)O[C@@H](O[C@H]2[C@H](N(C)C)[C@@H](O)[C@H](O[C@H]3[C@@H](CC=O)C[C@@H](C)C(=O)/C=C/C=C/C[C@@H](C)OC(=O)C[C@@H](OC(=O)CC)[C@@H]3OC)O[C@@H]2C)C[C@@]1(C)OC [Compound (39)]	–	> 100 µg/mL	1.56 µg/mL (≈ 1.93 µM)	12.5 µg/mL (≈ 15.4 µM)	3.13 µg/mL (≈ 3.86 µM)	> 100 µg/mL	> 100 µg/mL	–	1.56 µg/mL (≈ 1.93 µM)	–	12.5 µg/mL (≈ 15.4 µM)	–	6.25 µg/mL (≈ 7.72 µM)	25 µg/mL (≈ 30.9 µM)	0.39 µg/mL (≈ 0.481 µM)	> 100 µg/mL	1.56 µg/mL (≈ 1.93 µM)	> 100 µg/mL	12.5 µg/mL (≈ 15.4 µM)	12.5 µg/mL (≈ 15.4 µM)	MIC [13, 24]: 6.25 µg/mL (≈ 7.72 µM)

From patent US5444174A, “16-membered macrolide derivative having sustained antibacterial activity in plasma, synthesis intermediate thereof and process for producing the same” (Meiji Seika Kaisha, Ltd., priority 1992, dated 1995)
